The assay can be described thus: Half maximal inhibition of binding of [125I]CCK-8 to Cholecystokinin type B receptor in guinea pig cerebral cortex.
As to `CN1C(=O)[C@H](NC(=O)CCc2ccccc2)N=C(c2ccccc2)c2ccccc21` [(R)-N-(1-methyl-2-oxo-5-phenyl-2,3-dihydro-1H-benzo[e][1,4]diazepin-3-yl)-3-phenylpropanamide], the IC50 was greater than 1000 nM. The molecule `CN(C)CCN1C(=O)C(NC(=O)CCc2ccc(Cl)cc2Cl)N=C(c2ccccc2)c2ccccc21` (centres undefined) [3-(2,4-Dichloro-phenyl)-N-[1-(2-dimethylamino-ethyl)-2-oxo-5-phenyl-2,3-dihydro-1H-benzo[e][1,4]diazepin-3-yl]-propionamide] displayed an IC50 greater than 1000 nM. For the molecule `CN1C(=O)[C@H](NC(=O)CCC2CCCCC2)N=C(c2ccccc2)c2ccccc21` [3-Cyclohexyl-N-((R)-1-methyl-2-oxo-5-phenyl-2,3-dihydro-1H-benzo[e][1,4]diazepin-3-yl)-propionamide], the IC50 is greater than 1000 nM. Take `CN1C(=O)[C@H](NC(=O)Cc2ccccc2)N=C(c2ccccc2)c2ccccc21` [N-((R)-1-Methyl-2-oxo-5-phenyl-2,3-dihydro-1H-benzo[e][1,4]diazepin-3-yl)-2-phenyl-acetamide]: the IC50 was greater than 1000 nM. Molecule `CN1C(=O)[C@H](NC(=O)CCc2ccc(N)cc2)N=C(c2ccccc2)c2ccccc21` [3-(4-Amino-phenyl)-N-((R)-1-methyl-2-oxo-5-phenyl-2,3-dihydro-1H-benzo[e][1,4]diazepin-3-yl)-propionamide] showed an IC50 greater than 1000 nM.

In turn, `CN1C(=O)[C@H](NC(=O)c2ccccc2)N=C(c2ccccc2)c2ccccc21` [N-((R)-1-Methyl-2-oxo-5-phenyl-2,3-dihydro-1H-benzo[e][1,4]diazepin-3-yl)-benzamide] had an IC50 greater than 1000 nM. In the case of `CC(C)N1C(=O)[C@H](NC(=O)Cc2cc(Cl)cc(Cl)c2)N=C(c2ccccc2)c2ccccc21` [2-(3,5-Dichloro-phenyl)-N-((R)-1-isopropyl-2-oxo-5-phenyl-2,3-dihydro-1H-benzo[e][1,4]diazepin-3-yl)-acetamide] it was greater than 1000 nM.

`CN1C(=O)[C@H](NC(=O)C(N)Cc2ccccc2)N=C(c2ccccc2)c2ccccc21` (stereo partly drawn) [2-Amino-N-((R)-1-methyl-2-oxo-5-phenyl-2,3-dihydro-1H-benzo[e][1,4]diazepin-3-yl)-3-phenyl-propionamide] gave an IC50 greater than 1000 nM.

The molecule `CN1C(=O)[C@H](NC(=O)CCc2ccc(Cl)cc2Cl)N=C(c2ccccc2)c2ccccc21` [3-(2,4-Dichloro-phenyl)-N-((R)-1-methyl-2-oxo-5-phenyl-2,3-dihydro-1H-benzo[e][1,4]diazepin-3-yl)-propionamide] came in with an IC50 greater than 1000 nM. Take `CC(C)N1C(=O)[C@H](NC(=O)CCC2CCCCC2)N=C(c2ccccc2)c2ccccc21` [3-Cyclohexyl-N-((R)-1-isopropyl-2-oxo-5-phenyl-2,3-dihydro-1H-benzo[e][1,4]diazepin-3-yl)-propionamide]: the IC50 was greater than 1000 nM. `O=C(Cc1ccc(C(F)(F)F)cc1C(F)(F)F)N[C@@H]1N=C(c2ccccc2)c2ccccc2N(CC(F)(F)F)C1=O` [2-(2,4-Bis-trifluoromethyl-phenyl)-N-[(R)-2-oxo-5-phenyl-1-(2,2,2-trifluoro-ethyl)-2,3-dihydro-1H-benzo[e][1,4]diazepin-3-yl]-acetamide] returned an IC50 greater than 1000 nM. `O=C(Cc1ccc(C(F)(F)F)cc1C(F)(F)F)N[C@H]1N=C(c2ccccc2)c2ccccc2N(CC(F)(F)F)C1=O` [2-(2,4-Bis-trifluoromethyl-phenyl)-N-[(S)-2-oxo-5-phenyl-1-(2,2,2-trifluoro-ethyl)-2,3-dihydro-1H-benzo[e][1,4]diazepin-3-yl]-acetamide] yielded an IC50 greater than 1000 nM. In the case of `CN1C(=O)[C@H](NC(=O)/C=C/c2ccc(Cl)cc2Cl)N=C(c2ccccc2)c2ccccc21` [(E)-3-(2,4-Dichloro-phenyl)-N-((R)-1-methyl-2-oxo-5-phenyl-2,3-dihydro-1H-benzo[e][1,4]diazepin-3-yl)-acrylamide], the IC50 is greater than 1000 nM. `CC(=O)Nc1ccc(CCC(=O)N[C@@H]2N=C(c3ccccc3)c3ccccc3N(C)C2=O)cc1` [3-(4-Acetylamino-phenyl)-N-((R)-1-methyl-2-oxo-5-phenyl-2,3-dihydro-1H-benzo[e][1,4]diazepin-3-yl)-propionamide] registered an IC50 greater than 1000 nM.

(Values after BindingDB's records for doi:10.1021/jm970517u (Merck Research Laboratories, 1998).)
